Laboratory results as given in US7456165B2, “HCV NS5B inhibitors” (Bristol-Myers Squibb Company, priority 2006, dated 2008).

Assays:
HCV replicon cells = test: HCV replicon FRET assay; format: cell-based; details: Hepatitis C virus
Source text: FRET Assay Preparation. To perform the HCV FRET screening assay, 96-well cell culture plates were used. The FRET peptide (Anaspec, Inc.) (Taliani et al., Anal Biochem. 1996, 240, 60-67) contains a fluorescence donor, EDANS, near one end of the peptide and an acceptor, DABCYL, near the other end. The fluorescence of the peptide is quenched by […] resonance energy transfer (RET) between the donor and the acceptor, but as the NS3 protease cleaves the peptide the products are released from RET quenching and the fluorescence of the donor becomes apparent. The assay reagent was made as follows: 5× cell Luciferase cell culture lysis reagent from Promega (#E153A) diluted to 1× with dH2O, NaCl added to 150 mM final, the FRET peptide diluted to 20 μM final from a 2 mM stock.
To prepare plates, HCV replicon cells, with or without a Renilla luciferase reporter gene, were trypsinized and placed into each well of a 96-well plate with titrated test compounds added in columns 3 through 12; columns 1 and 2 contained a control compound (HCV protease inhibitor), and the bottom row contained cells without compound. The plates were then placed in a CO2 incubator at 37° C.
Assays. Subsequent to addition of the test compounds described above (FRET Assay Preparation), at various times the plate was removed and Alamar blue solution (Trek Diagnostics, #00-100) was added per well as a measure of cellular toxicity. After reading in a Cytoflour 4000 instrument (PE Biosystems), plates were rinsed with PBS and then used for FRET assay by the addition of 30 ul of the FRET peptide assay reagent described above (FRET Assay Preparation) per well. The plate was then placed into the Cytoflour 4000 instrument which had been set to 340 excite/490 emission, automatic mode for 20 cycles and the plate read in a kinetic mode. Typically, the signal to noise using an endpoint analysis after the reads was at least three-fold. Alternatively, after Alamar blue reading, plates were rinsed with PBS, 50 ul of DMEM (high glucose) without phenol red was added and plates were then used for luciferase assay using the Promega Dual-Glo Luciferase Assay System.
Compound analysis was determined by quantification of the relative HCV replicon inhibition and the relative cytotoxicity values. To calculate cytoxicity values, the average Alamar Blue fluorescence signals from the control wells were set as 100% non-toxic. The individual signals in each of the compound test wells were then divided by the average control signal and multiplied by 100% to determine […]. To calculate the HCV replicon inhibition values, an average background value was obtained from the two wells containing the highest amount of HCV protease inhibitor at the end of the assay period. These numbers were similar to those obtained from naïve Huh-7 cells.
The background numbers were then subtracted from the average signal obtained from the control wells and this number was used as 100% activity. The individual signals in each of the compound test wells were then divided by the averaged control values after background subtraction and multiplied by 100% to determine percent activity. EC50 values for a protease inhibitor titration were calculated as the concentration which caused a 50% reduction in FRET or luciferase activity. The two numbers generated for the compound plate, percent cytoxicity and percent activity were used to determine compounds of interest for further analysis.

HCV NS5B = target: T1, HCV NS5B (Hepatitis C virus genotype 1b, UniProt Q9WMX2); test: HCV NS5B RdRp enzyme assay (preincubation protocol); format: biochemical; details: HCV NS5B RdRp genotype 1b
T1 construct: The protein was expressed with an 18 amino acid C-terminal truncation to enhance the solubility; made in house; host or cells: E. coli BL21(DE3)
Procedure: HCV NS5B RdRp cloning, expression, and purification. The cDNA encoding the NS5B protein of HCV, genotype 1b, was cloned into the pET21a expression vector. The protein was expressed with an 18 amino acid C-terminal truncation to enhance the solubility. The E. coli competent cell line BL21(DE3) was used for expression of the protein. Cultures were grown at 37° C. for ˜4 hours until the cultures reached an optical density of 2.0 at 600 nm. The cultures were cooled to 20° C. and induced with 1 mM IPTG. Fresh ampicillin was added to a final concentration of 50 μg/ml and the cells were grown overnight at 20° C.
Cell pellets (3 L) were lysed for purification to yield 15-24 mgs of purified NS5B. The lysis buffer consisted of 20 mM Tris-HCl, pH 7.4, 500 mM NaCl, 0.5% triton X-100, 1 mM DTT, 1 mM EDTA, 20% glycerol, 0.5 mg/ml lysozyme, 10 mM MgCl2, 15 ug/ml deoxyribonuclease I, and Complete TM protease inhibitor tablets (Roche). After addition of the lysis buffer, frozen cell pellets were resuspended using a tissue homogenizer. To reduce the viscosity of the sample, aliquots of the lysate were sonicated on ice using a microtip attached to a Branson sonicator. The sonicated lysate was centrifuged at 100,000×g for 1 hr at 4° C. and filtered through a 0.2 μm filter unit (Corning).
The protein was purified using three sequential chromatography steps: Heparin sepharose CL-6B, polyU sepharose 4B, and Hitrap SP sepharose (Pharmacia). The chromatography buffers were identical to the lysis buffer but contained no lysozyme, deoxyribonuclease I, MgCl2 or protease inhibitor and the NaCl concentration of the buffer was adjusted according to the requirements for charging the protein onto the column. Each column was eluted with a NaCl gradient which varied in length from 5-50 column volumes depending on the column type. After the final chromatography step, the resulting purity of the enzyme is >90% based on SDS-PAGE analysis. The enzyme was aliquoted and stored at −80° C.
Standard HCV NS5B RdRp enzyme assay. HCV RdRp genotype 1b assays were run in a final volume of 60 μl in 96 well plates (Costar 3912 H. The assay buffer is composed of 20 mM Hepes, pH 7.5, 2.5 mM KCl, 2.5 mM MgCl2, 1 mM DTT, 1.6 U RNAse inhibitor (Promega N2515), 0.1 mg/ml BSA (Promega R3961), and 2% glycerol. All compounds were serially diluted (3-fold) in DMSO and diluted further in water such that the final concentration of DMSO in the assay was 2%. HCV RdRp genotype 1b enzyme was used at a final concentration of 28 nM. A polyA template was used at 6 nM, and a biotinylated oligo-dT12 primer was used at 180 nM final concentration. Template was obtained commercially (Amersham 27-4110). Biotinylated primer was prepared by Sigma Genosys. 3H-UTP was used at 0.6 μCi (0.29 μM total UTP). Reactions were initiated by the addition of enzyme, incubated at 30° C. for 60 min, and stopped by adding 25 μl of 50 mM EDTA containing SPA beads (4 μg/μl, Amersham RPNQ 0007 H. Plates were read on a Packard Top Count NXT after >1 hr incubation at room temperature.
Modified HCV NS5B RdRp enzyme assay. A modified enzyme assay was performed essentially as described for the standard enzyme assay except for the following: The biotinylated oligo dT12 primer was precaptured on streptavidin-coated SPA beads by mixing primer and beads in assay buffer and incubating at room temperature for one hour. Unbound primer was removed after centrifugation. The primer-bound beads were resuspended in 20 mM Hepes buffer, pH 7.5 and used in the assay at final concentrations of 20 nM primer and 0.67 μg/μl beads. Order of addition in the assay: enzyme (14 nM) was added to diluted compound followed by the addition of a mixture of template (0.2 nM), 3H-UTP (0.6 μCi, 0.29 μM), and primer-bound beads, to initiate the reaction; concentrations given are final. Reactions were allowed to proceed for 4 hours at 30° C.
IC50 values for compounds were determined using seven different [I]. […]

T1 sequence (Q9WMX2 2420-2992): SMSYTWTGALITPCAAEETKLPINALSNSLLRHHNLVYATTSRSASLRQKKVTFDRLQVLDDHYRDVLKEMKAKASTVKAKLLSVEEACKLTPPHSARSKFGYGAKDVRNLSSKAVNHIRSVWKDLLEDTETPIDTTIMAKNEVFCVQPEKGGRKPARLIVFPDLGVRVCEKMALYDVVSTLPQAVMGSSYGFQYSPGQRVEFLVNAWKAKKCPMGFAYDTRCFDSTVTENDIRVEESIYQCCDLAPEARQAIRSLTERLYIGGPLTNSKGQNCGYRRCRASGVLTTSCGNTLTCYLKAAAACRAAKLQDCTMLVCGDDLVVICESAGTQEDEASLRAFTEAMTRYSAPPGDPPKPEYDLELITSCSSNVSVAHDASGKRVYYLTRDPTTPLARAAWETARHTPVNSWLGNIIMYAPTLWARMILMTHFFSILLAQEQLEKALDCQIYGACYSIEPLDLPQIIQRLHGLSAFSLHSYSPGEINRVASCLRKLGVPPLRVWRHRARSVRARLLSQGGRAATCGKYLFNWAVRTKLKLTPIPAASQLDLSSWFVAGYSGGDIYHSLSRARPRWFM

Row | Structure (SMILES) | EC50 (HCV replicon cells) | IC50 (HCV NS5B)
1 | COc1ccc2c(c1)C=C(c1ncco1)Cn1c-2c(C2CCCCC2)c2ccc(C(=O)O)cc21 [Example 56, 13-Cyclohexyl-3-methoxy-6-(1,3-oxazol-2-yl)-7H-indolo[2,1-a][2]benzazepine-10-carboxylic acid] | > 500 nM | 1 to 500 nM
2 | O=C(O)c1ccc2c(C3CCCCC3)c3n(c2c1)CC(c1nn(CC2CCOCC2)c(=O)o1)=Cc1ccccc1-3 [Example 21, 13-cyclohexyl-6-[4,5-dihydro-5-oxo-4-[(tetrahydro-2H-pyran-4-yl)methyl]-1,3,4-oxadiazol-2-yl]-7H-indolo[2,1-a][2]benzazepine-10-carboxylic acid] | > 500 nM | 1 to 500 nM
3 | Cc1noc(C2=Cc3ccccc3-c3c(C4CCCCC4)c4ccc(C(=O)O)cc4n3C2)n1 [Example 24, 13-cyclohexyl-6-(3-methyl-1,2,4-oxadiazol-5-yl)-7H-indolo[2,1-a][2]benzazepine-10-carboxylic acid] | > 500 nM | 1 to 500 nM
4 | O=C(CN1CCOCC1)Nc1nnc(C2=Cc3ccccc3-c3c(C4CCCCC4)c4ccc(C(=O)O)cc4n3C2)o1 [Example 33, 13-cyclohexyl-6-[5-[(4-morpholinylacetyl)amino]-1,3,4-oxadiazol-2-yl]-7H-indolo[2,1-a][2]benzazepine-10-carboxylic acid] | > 500 nM | 1 to 500 nM
5 | COC(=O)c1ccc2c(C3CCCCC3)c3n(c2c1)CC(c1ncco1)=Cc1cc(OC)ccc1-3 [Example 55, Methyl 13-cyclohexyl-3-methoxy-6-(1,3-oxazol-2-yl)-7H-indolo[2,1-a][2]benzazepine-10-carboxylate] | – | > 500 nM
6 | O=C(O)c1ccc2c(C3CCCCC3)c3n(c2c1)CC(c1nnn(CC2CCCO2)n1)=Cc1ccccc1-3 (stereo not shown) [Example 8, 13-cyclohexyl-6-[2-[(tetrahydro-2-furanyl)methyl]-2H-tetrazol-5-yl]-5H-indolo[2,1-a][2]benzazepine-10-carboxylic acid] | > 500 nM | 1 to 500 nM
7 | O=C(O)c1ccc2c(C3CCCCC3)c3n(c2c1)CC(c1ccoc1)=Cc1ccccc1-3 [Example 45, 13-Cyclohexyl-6-(furan-3-yl)-7H-indolo{2,1-a][2]benzazepine-10-carboxylic Acid] | > 500 nM | 1 to 500 nM
8 | CN(C)S(=O)(=O)NC(=O)c1ccc2c(C3CCCCC3)c3n(c2c1)CC(c1nnn(CC2CCOCC2)n1)=Cc1ccccc1-3 [Example 15, 13-cyclohexyl-N-[(dimethylamino)sulfonyl]-6-[2-[(tetrahydro-2H-pyran-4-yl)methyl]-2H-tetrazol-5-yl]-7H-indolo[2,1-a][2]benzazepine-10-carboxamide] | > 500 nM | 1 to 500 nM
9 | COC(=O)c1ccc2c(C3CCCCC3)c3n(c2c1)CC(c1ncc(CCC(=O)N2CCOCC2)o1)=Cc1cc(OC)ccc1-3 [Example 48, Methyl 13-cyclohexyl-3-methoxy-6-(5-(3-(4-morpholinyl)-3-oxopropyl)-1,3-oxazol-2-yl)-7H-indolo[2,1-a][2]benzazepine-10-carboxylate] | > 500 nM | > 500 nM
10 | CN(C)S(=O)(=O)NC(=O)c1ccc2c(C3CCCCC3)c3n(c2c1)CC(c1ncc(CCC(=O)N2CCOCC2)o1)Cc1ccccc1-3 (stereo not shown) [Example 38, 13-cyclohexyl-N-[(dimethylamino)sulfonyl]-6,7-dihydro-6-[5-[3-(4-morpholinyl)-3-oxopropyl]-2-oxazolyl]-5H-indolo[2,1-a][2]benzazepine-10-carboxamide] | 1 to 500 nM | 1 to 500 nM
11 | O=C(O)c1ccc2c(C3CCCCC3)c3n(c2c1)C=C(c1nnn(CC2CC2)n1)Cc1ccccc1-3 [Example 7, 13-cyclohexyl-6-[2-(cyclopropylmethyl)-2H-tetrazol-5-yl]-5H-indolo[2,1-a][2]benzazepine-10-carboxylic acid] | > 500 nM | > 500 nM
12 | Nc1nnc(C2=Cc3ccccc3-c3c(C4CCCCC4)c4ccc(C(=O)O)cc4n3C2)o1 [Example 30, 6-(5-amino-1,3,4-oxadiazol-2-yl)-13-cyclohexyl-7H-indolo[2,1-a][2]benzazepine-10-carboxylic acid] | > 500 nM | > 500 nM
13 | O=C(O)c1ccc2c(C3CCCCC3)c3n(c2c1)CC(c1nnc(CC2CCOCC2)o1)=Cc1ccccc1-3 [Example 44, 13-cyclohexyl-6-[5-[(tetrahydro-2H-pyran-4-yl)methyl]-1,3,4-oxadiazol-2-yl]-7H-indolo[2,1-a][2]benzazepine-10-carboxylic acid] | > 500 nM | 1 to 500 nM
14 | COc1ccc2c(c1)CC(c1ncc(CCC(=O)N3CCOCC3)o1)Cn1c-2c(C2CCCCC2)c2ccc(C(=O)O)cc21 (racemic) [Example 50, 13-Cyclohexyl-3-methoxy-6-(5-(3-(4-morpholinyl)-3-oxopropyl)-1,3-oxazol-2-yl)-6,7-dihydro-5H-indolo[2,1-a][2]benzazepine-10-carboxylic acid] | 1 to 500 nM | 1 to 500 nM
15 | COC(=O)c1ccc2c(C3CCCCC3)c3n(c2c1)CC(c1ncc(CCC(=O)N2CCOCC2)o1)Cc1cc(OC)ccc1-3 (stereo not shown) [Example 49, Methyl 13-cyclohexyl-3-methoxy-6-(5-(3-(4-morpholinyl)-3-oxopropyl)-1,3-oxazol-2-yl)-6,7-dihydro-5H-indolo[2,1-a][2]benzazepine-10-carboxylate] | – | > 500 nM
